Experimental findings from ChEMBL document CHEMBL1201862, “PubChem BioAssay data set” (2004) are described below.

Experiment [1] deals with BJ. Description: BJ-TERT-LT-ST fibroblast viability loss – cell-based, RAS-independent, luminescence, dose response (AID 1935).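 Also: BJ fibroblasts immortalized with TERT plus LT and ST oncogenes.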 It is filed as functional. The settings on record: Homo sapiens.
For experiment [2], the system named is BJ. Description: cells. The experiment is classed as functional, cell-based. The settings on record: Homo sapiens.
A short description of experiment [3]: DRD fibroblast viability loss – cell-based, non-viral oncogenic, luminescence, dose response (AID 1934). The experiment is classed as functional. Conditions: Homo sapiens.
The subject of a further experiment is INS1. The experiment is described as follows: INS-1E survival protection against cytokine death – cell-based, luminescence, retest, dose response (AID 449756).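 Also: cell death triggered by IL-1 beta plus TNF-alpha plus IFN-gamma mixture; protective hits raise ATP signal compared with cytokine alone wells.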 Conditions: Rattus norvegicus. The experiment is classed as functional.
Experiment [4] concerns BJ. Description: BJ-TERT fibroblast viability loss – cell-based, RAS-independent, luminescence, dose response (AID 1933). The settings on record: Homo sapiens. It is filed as functional.
Experiment [5] has as its target T1, Calpain-2 catalytic subunit (Sus scrofa, UniProt P43367).
T1 sequence (P43367 whole entry): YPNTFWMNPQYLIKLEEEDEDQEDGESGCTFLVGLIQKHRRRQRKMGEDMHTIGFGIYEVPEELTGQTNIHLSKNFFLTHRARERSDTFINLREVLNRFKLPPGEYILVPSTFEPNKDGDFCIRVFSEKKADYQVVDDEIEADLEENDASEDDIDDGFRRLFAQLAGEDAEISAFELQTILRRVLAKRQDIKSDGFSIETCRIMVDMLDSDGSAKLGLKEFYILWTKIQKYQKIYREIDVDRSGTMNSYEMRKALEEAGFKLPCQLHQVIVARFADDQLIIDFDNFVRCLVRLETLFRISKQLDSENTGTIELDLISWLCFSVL
The experiment is described as follows: m-calpain protease blockers, concentration series – biochemical, fluorogenic peptide substrate, dose response (AID 1420). The experiment is classed as functional.

Another experiment concerns the target Cytochrome P450 2D6 (Homo sapiens, UniProt P10635).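 Also: CYP2D6 member of a cytochrome P450 panel assay.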
The target in experiment [6] is T2, Zinc finger protein mex-5 (Caenorhabditis elegans, UniProt Q9XUB2).
T2 sequence (Q9XUB2 whole entry): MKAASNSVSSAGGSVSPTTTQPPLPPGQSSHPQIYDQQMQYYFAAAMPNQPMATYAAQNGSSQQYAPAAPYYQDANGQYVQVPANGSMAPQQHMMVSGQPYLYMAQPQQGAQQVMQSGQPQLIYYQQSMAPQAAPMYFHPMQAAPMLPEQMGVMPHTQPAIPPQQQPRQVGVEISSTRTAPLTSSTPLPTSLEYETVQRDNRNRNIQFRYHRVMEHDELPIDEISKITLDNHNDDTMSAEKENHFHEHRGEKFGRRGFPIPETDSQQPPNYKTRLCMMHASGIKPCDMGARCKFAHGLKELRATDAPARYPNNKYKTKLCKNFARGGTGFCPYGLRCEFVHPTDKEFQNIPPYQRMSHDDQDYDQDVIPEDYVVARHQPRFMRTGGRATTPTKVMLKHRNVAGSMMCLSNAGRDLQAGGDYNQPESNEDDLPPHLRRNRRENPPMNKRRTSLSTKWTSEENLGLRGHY
The experiment is described as follows: potency of MEX-5 RNA-binding blockers – biochemical, C. elegans, fluorescence polarization, dose response (AID 1960). Background: In fluorescence polarisation assays a small probe gives low polarisation when free and higher when bound to something large.

For the next experiment, the target named is Cytochrome P450 2C9 (Homo sapiens, UniProt P11712).
Cytochrome P450 2C9, sequence (P11712 whole entry): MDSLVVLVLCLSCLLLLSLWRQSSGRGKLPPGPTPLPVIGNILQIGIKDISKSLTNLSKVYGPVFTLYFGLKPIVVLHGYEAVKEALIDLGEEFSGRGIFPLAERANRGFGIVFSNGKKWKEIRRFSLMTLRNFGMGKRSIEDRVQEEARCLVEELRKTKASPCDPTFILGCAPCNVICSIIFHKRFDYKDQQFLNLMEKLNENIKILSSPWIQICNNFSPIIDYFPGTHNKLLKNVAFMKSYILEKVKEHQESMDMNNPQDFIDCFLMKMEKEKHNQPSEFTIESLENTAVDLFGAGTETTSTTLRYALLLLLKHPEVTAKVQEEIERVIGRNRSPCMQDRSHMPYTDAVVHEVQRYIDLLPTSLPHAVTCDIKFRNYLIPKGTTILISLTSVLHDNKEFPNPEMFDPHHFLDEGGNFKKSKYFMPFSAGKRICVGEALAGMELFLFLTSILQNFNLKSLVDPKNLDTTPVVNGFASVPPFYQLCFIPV
Experiment [7] has as its target T3, RNA-binding protein pos-1 (Caenorhabditis elegans, UniProt G5EF15).
T3 sequence (G5EF15 whole entry): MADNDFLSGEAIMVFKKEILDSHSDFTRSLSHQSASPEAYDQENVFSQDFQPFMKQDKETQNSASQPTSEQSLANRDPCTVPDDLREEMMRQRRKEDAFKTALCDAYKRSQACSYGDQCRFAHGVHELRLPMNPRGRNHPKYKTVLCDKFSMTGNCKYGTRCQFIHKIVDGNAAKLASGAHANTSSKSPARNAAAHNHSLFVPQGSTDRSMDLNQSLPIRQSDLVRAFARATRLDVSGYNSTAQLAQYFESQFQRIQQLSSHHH
The experiment is described as follows: disruptors of C. elegans POS-1 RNA interaction – biochemical, fluorescence polarization, dose response (AID 1964).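 Also: purified POS-1 fused to maltose binding protein made in E. coli; potency of compounds blocking POS-1 binding to fluorescent RNA.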

The nature of experiment [8]: cells. The experiment is classed as functional, cell-based.
Experiment [9] is described as follows: cells. It is filed as functional, cell-based. This is another data set of the same source.
Experiment [10] concerns the target FAD-linked sulfhydryl oxidase ALR (Homo sapiens, UniProt P55789). Description: ALR-catalysed DTT oxidation blockers – biochemical, H2O2 detection, luminescence, cherry-pick, dose response (AID 493248).
The target in experiment [11] is Luciferin 4-monooxygenase (Photinus pyralis, UniProt P08659). The experiment is described as follows: inhibition of purified Photinus pyralis luciferase – biochemical, luminescence, dose response (AID 1891).
Luciferin 4-monooxygenase, sequence (P08659 whole entry): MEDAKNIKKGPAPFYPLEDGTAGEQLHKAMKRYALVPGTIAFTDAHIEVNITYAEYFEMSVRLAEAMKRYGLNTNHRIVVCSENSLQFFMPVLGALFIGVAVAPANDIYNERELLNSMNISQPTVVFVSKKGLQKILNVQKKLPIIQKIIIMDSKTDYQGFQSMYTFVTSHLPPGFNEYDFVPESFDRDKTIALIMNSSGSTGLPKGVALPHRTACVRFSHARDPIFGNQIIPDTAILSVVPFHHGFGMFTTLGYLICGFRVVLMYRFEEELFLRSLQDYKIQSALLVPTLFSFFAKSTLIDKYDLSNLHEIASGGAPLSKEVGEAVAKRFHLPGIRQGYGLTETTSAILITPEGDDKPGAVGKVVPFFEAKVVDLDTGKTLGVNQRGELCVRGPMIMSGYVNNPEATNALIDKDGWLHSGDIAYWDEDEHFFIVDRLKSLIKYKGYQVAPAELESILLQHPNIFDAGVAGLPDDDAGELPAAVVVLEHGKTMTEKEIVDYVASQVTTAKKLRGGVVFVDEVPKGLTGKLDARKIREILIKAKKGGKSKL
A short description of experiment [12]: Luminescence Cell-Based Dose Confirmation HTS to Identify Inhibitors of Platelet Dense Granule Release. [Related pubchem assays: 1663 (Primary HTS), 1678 (Summary of Project)]. It is filed as functional.
Experiment [13] concerns the target T4, Ubiquitin-conjugating enzyme E2 N (Homo sapiens, UniProt P61088).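 Also: Dose-response confirmation in a TR-FRET assay detecting UBC13-driven polyubiquitin chain formation, inhibition measured.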
T4 sequence (P61088 whole entry): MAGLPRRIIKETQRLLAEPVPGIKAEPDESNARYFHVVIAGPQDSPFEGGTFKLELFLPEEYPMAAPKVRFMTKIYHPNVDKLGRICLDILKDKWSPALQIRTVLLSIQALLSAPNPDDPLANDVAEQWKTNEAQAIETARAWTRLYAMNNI
The experiment is classed as functional.

Experiment [14] can be described thus: cells. The experiment is classed as functional.
Experiment [15] can be described thus: Trypanosoma cruzi growth suppression in host cells – NIH3T3 host cells, beta-gal luminescence, confirmation (AID 2044).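 Also: intracellular parasites grown in NIH/3T3 mouse fibroblasts as host cells; luminescent beta-galactosidase reporter signal from transgenic T. cruzi replicating inside host cells; inhibitors lower the luminescence signal.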 It is filed as functional, cell-based.
Experiment [16] is described as follows: NIH3T3 cell viability loss – ATP luminescence, mouse fibroblasts, counter-screen, dose response (AID 2010).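 Also: cells exposed to compound for about 90 hours before reading.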 The experiment is classed as functional, cell-based. For orientation: Counterscreens check selectivity or assay interference.
The nature of experiment [17]: viability of uninfected HEp-2 cells – cell-based, HTS, cytotoxicity control for RSV inhibitor project, dose response (AID 2410). The settings on record: human respiratory syncytial virus. It is filed as functional.
A short description of experiment [18]: Luminescence Cell-Based Dose Retest to Confirm Inhibitors of Cancer Stem Cells. [Related pubchem assays (depositor defined):AID2717, AID2721]. The experiment is classed as functional. The settings on record: Homo sapiens.
A short description of experiment [19]: microbe, parasite or virus in culture. The experiment is classed as functional. Conditions: Mycobacterium tuberculosis.

Calls of active or inactive are those of the source. Rule as the data show it, for most assays here: actives have a measured EC50 and inactives only a lower limit. Where only a bound is given, the exact number is not on record here.

FAD-linked sulfhydryl oxidase ALR, sequence (P55789 whole entry): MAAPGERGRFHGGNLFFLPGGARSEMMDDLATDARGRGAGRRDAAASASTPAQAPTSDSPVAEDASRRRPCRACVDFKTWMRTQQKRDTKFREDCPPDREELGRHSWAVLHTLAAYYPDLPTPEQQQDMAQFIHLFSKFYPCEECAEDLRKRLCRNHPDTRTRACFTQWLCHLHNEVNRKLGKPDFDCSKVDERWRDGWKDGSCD
Cytochrome P450 2D6, sequence (P10635 whole entry): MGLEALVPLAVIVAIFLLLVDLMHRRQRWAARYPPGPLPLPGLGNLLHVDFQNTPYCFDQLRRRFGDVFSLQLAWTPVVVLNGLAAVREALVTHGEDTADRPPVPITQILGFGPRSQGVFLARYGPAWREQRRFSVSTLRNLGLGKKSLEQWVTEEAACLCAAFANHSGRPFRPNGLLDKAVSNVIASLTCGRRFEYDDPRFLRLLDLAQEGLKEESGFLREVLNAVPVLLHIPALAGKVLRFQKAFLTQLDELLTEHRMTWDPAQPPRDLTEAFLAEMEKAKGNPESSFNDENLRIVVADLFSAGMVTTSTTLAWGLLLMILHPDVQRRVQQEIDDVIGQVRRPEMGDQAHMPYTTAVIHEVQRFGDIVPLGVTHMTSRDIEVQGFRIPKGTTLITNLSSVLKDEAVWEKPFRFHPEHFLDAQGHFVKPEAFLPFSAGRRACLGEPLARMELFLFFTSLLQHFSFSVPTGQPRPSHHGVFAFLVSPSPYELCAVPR

Consider `Cc1ccc(C)c(NS(=O)(=O)c2ccc(OCC(=O)NCc3cccnc3)cc2)c1`, for which the EC50 (in general, the concentration giving half of the maximal effect) was > 150 µM (inconclusive) in the experiment on BJ [1], 18.1 µM (active) in the experiment on BJ [2], > 150 µM (not active) in experiment [3] and > 150 µM (not active) in the experiment with BJ [4]. The AC50 (as a rule, the midpoint of the concentration-response curve, whichever way the signal moves) with INS1 is 8.78 µM (active).

Take `CCOC(=O)c1c(N)sc(C(=O)N2CCCCCC2)c1C`: the IC50 (in general, the point on the concentration scale where inhibition reaches its midpoint) in experiment [5] is listed as > 50 µM (not active).

On to `COC(=O)c1c(NC(=O)CC2Nc3ccccc3NC2=O)sc(C)c1C` (centres undefined), for which the values for the AC50 at Cytochrome P450 2D6 and at Cytochrome P450 2C9 were 25.1 µM (inconclusive) and 17.8 µM (inconclusive), respectively. Further, the EC50 was > 300 µM (inconclusive) in experiment [6] and > 300 µM (not active) in experiment [7].

For the compound `CC(C)c1cc(NC(=O)CCl)on1`, the EC50 is > 150 µM (not active) in the experiment on BJ [1], > 150 µM (not active) in the experiment with BJ [2], > 150 µM (inconclusive) in experiment [3] and > 150 µM (not active) in the experiment with BJ [4].

`COc1ccc(C(=O)NCCc2nc3cc([N+](=O)[O-])ccc3n2C)cc1`: the EC50 in “cells [8]” and in the experiment “cells [9]” was > 350 µM (not active) each time.

With `O=C(c1ccc(C[S+]([O-])Cc2ccc(Cl)cc2)o1)N1CCN(c2ccccc2)CC1` (centres undefined), the AC50 in experiment [10] is > 100 µM (inactive).

For `Cc1ccc(OCCNC(=O)CCc2nc(O)c3c4c(sc3n2)CCCC4)cc1`, the EC50 in “cells [8]” and in “cells [9]” was > 350 µM (not active) throughout.

With `COc1ccc(N2CCN(C(=O)c3ccc(C)cc3Cl)CC2)cc1`, the AC50 in experiment [10] is 3.97 µM (active).

With `Cc1ccc(/C=C/C(=O)O)cc1S(=O)(=O)N1CCCCC1`, the 50% effective concentration (EC50) in experiment [11] is recorded as > 112 µM (not active); in experiment [6], > 300 µM (not active); in [7], > 300 µM (not active); in experiment [12] it was > 112 µM (not active).

As for `COc1cc(NC(=O)CN2c3ccccc3CC2C)cc(OC)c1OC` (centres undefined), the AC50 in experiment [10] was 0.394 µM (active).

Consider `N#CC1=C(N)Oc2cc(N)ccc2C1c1ccc(F)cc1` (centres undefined), for which the AC50 in experiment [10] was 2.78 µM (active).

Turning to `Cc1ccc2c(c1)N(C(=O)CCC(=O)NCCCN1CCC(Cc3ccccc3)CC1)CCO2`, the AC50 in the experiment with INS1 was 20.4 µM (active). Besides, the IC50 in experiment [13] is > 20 µM (inactive).

With `CCCC1=Nc2cc(C(=O)N3CCC(C(=O)OCC)CC3)ccc2Sc2ccccc21`, the EC50 was > 150 µM (not active) with BJ [1], > 150 µM (not active) in the experiment on BJ [2], 126 µM (active) in experiment [3] and > 150 µM (not active) in the experiment on BJ [4].

With `COc1ccc(NC(=O)c2cccs2)cn1`, the EC50 in “cells [8]” was 48.3 µM (active); in the experiment “cells [9]”, > 350 µM (not active).

Consider `O=C(CCN1C(=O)S/C(=C\c2ccc(F)cc2)C1=O)Nc1ccc(C(=O)O)c(O)c1`, for which the EC50 in the experiment “cells [8]” was 3.94 µM (active); in “cells [9]” it was > 350 µM (not active). Besides, the IC50 in the experiment “cells [14]” was 7.61 µM (active).

Consider `CC1=NN2C(=N)/C(=C\c3cc(C)n(Cc4ccccc4)c3C)C(=O)N=C2S1`, for which the AC50 in experiment [10] was 0.405 µM (active). Besides, the EC50 in “cells [8]” and in the experiment “cells [9]” was > 350 µM (not active) throughout.

Turning to `CCCCOC(=O)c1ccc(N=Nc2c(O)nc(O)c(C#N)c2C)cc1`, the EC50 in experiment [11] is > 112 µM (not active); in experiment [6] it was > 300 µM (inconclusive); in experiment [7], > 300 µM (not active); in [12], > 112 µM (not active).

`CCN(CC)C(=O)CSc1nnc(-c2cc(OC)cc(OC)c2)o1`: in experiment [5], the IC50 is listed as > 50 µM (not active).

For the compound `COc1ccccc1NC(=O)c1cc(S(=O)(=O)N2CCC3(CC2)OCCO3)ccc1F`, the IC50 in experiment [13] was > 20 µM (inactive).

Take `CN(C)c1ccnc(Oc2ccc(C(C)(C)C)cc2)c1C#N`: the IC50 in experiment [5] was 4.48 µM (not active).

Regarding `CCCCc1ccc(NC(=O)C2CCN(S(C)(=O)=O)CC2)cc1`, the concentration for a half-maximal effect (EC50) in the experiment “cells [8]” and in the experiment “cells [9]” was > 350 µM (not active) each time.

For the compound `CC(=O)c1ccc(-c2ccc(C(=O)N3CCN(c4ccc(F)cc4)CC3)o2)cc1`, in experiment [5], the IC50 was 6.42 µM (not active).

As for `Cc1[nH]c2ccccc2c1CCN(Cc1cccnc1)C(S)=Nc1cccc(F)c1`, the EC50 in experiment [15] was 698 nM (active); in experiment [16] it was > 60 µM (not active). Besides, in [5], the IC50 is 44.4 µM (not active).

With `Cc1ccc(C(C)C)c(OCCN=C(S)Nc2cccc3ccccc23)c1`, the IC50 in experiment [5] is listed as 6.63 µM (not active).

As for `O=C(NCCCn1ccnc1)C1CCN(S(=O)(=O)c2cc([N+](=O)[O-])ccc2Cl)CC1`, the IC50 in [13] was > 20 µM (inactive).

On to `CCOC(=O)CSc1nc(C(C)(C)C)cc(C(F)(F)F)c1C#N`, for which, in experiment [13], the IC50 was > 20 µM (inactive).

`COc1ccc(-c2c(-c3ccc(C#N)cc3)oc(=O)c3cc(OC)c(OC)cc23)cc1`: the IC50 in [13] was > 20 µM (inactive).

Take `C/C(=N\Nc1ccc([N+](=O)[O-])cc1)c1cccc(N)c1`: the AC50 in experiment [10] was 0.14 µM (active); on Cytochrome P450 2D6 it was 17.8 µM (inconclusive). For the same compound, the CC50 in experiment [17] is 22 µM (active).

For the compound `COc1cccc(/C=N/NC(=O)c2ccc(-c3ccccc3)cc2)c1O`, the EC50 in “cells [8]” is 56.6 µM (active); in the experiment “cells [9]” it was 166 µM (active). In addition, the AC50 is 3.83 µM (active) with INS1 and 3.26 µM (active) in [18].

Turning to `CC(=O)O/N=C1\C(=O)N(Cc2ccc(C)cc2)c2ccccc21`, the IC50 in experiment [5] was 15.5 µM (not active).

As for `COc1ccc(/C=N/NC(=O)CCc2c(C)n[nH]c2C)cc1O`, in experiment [10], the AC50 is 3.71 µM (active).

Turning to `CC(C)(O)[C@H]1O[C@H]2CC[C@@]3(C)[C@@](O)(CC[C@H]4Cc5c([nH]c6ccccc56)[C@@]43C)C2=CC1=O` [PAXILLINE], in experiment [19], the CC50 was > 40 µM (active). Besides, the concentration for a half-maximal effect (EC50) is 12.3 µM (active) in experiment [6] and 16.7 µM (active) in experiment [7].
